The values that follow come from ChEMBL document CHEMBL4420076, “Amylin and calcitonin receptor agonist” (2017).

The target of series [1] is T1, Amylin receptor AMY3; CALCR/RAMP3 (Homo sapiens, UniProt O60896+P30988).
T1 sequence (P30988 whole entry): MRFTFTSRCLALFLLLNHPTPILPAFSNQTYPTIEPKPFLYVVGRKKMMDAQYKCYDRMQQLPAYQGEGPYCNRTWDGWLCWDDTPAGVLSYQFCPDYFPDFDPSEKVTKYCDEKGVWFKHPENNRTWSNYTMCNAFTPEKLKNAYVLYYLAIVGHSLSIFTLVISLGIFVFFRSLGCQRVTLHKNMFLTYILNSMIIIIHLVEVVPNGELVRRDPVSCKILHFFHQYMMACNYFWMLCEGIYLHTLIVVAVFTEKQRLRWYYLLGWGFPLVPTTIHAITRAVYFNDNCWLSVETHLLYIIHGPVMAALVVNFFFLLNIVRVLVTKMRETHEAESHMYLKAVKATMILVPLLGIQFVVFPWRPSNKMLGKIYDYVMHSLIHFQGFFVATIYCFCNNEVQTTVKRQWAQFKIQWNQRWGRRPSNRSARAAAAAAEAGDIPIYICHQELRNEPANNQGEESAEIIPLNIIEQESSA
T1 sequence (O60896 whole entry): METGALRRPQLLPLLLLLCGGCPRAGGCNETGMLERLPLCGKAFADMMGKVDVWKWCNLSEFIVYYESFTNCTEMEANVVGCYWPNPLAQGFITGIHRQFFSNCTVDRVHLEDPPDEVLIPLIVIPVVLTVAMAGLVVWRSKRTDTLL
In words: Displacement of [125I]-labeled rat amylin from human amylin receptor expressed in BHK tkts13 whole cells co-expressing RAMP3 incubated for 60 mins by scintillation proximity assay. It counts as cell-based.

Series [2] concerns the target T2, Calcitonin receptor (Homo sapiens, UniProt P30988).
T2 sequence (P30988 whole entry): T1 sequence (P30988 whole entry)
Put plainly: Agonist activity at human calcitonin receptor expressed in BHK570 cells assessed as increase in intracellular cAMP concentration incubated for 3 hrs in presence of 10% FBS by CRE luciferase reporter gene assay. It counts as functional, cell-based. (In a reporter assay the amount or activity of a reporter protein is the signal.)

Series [3] concerns the target T1, Amylin receptor AMY3; CALCR/RAMP3. In words: Agonist activity at human amylin receptor expressed in BHK570 cells co-expressing RAMP3 assessed as increase in intracellular cAMP concentration incubated for 3 hrs in absence of albumin by CRE luciferase reporter gene assay. The format is functional, cell-based.
The target of series [4] is T2, Calcitonin receptor. Put plainly: Agonist activity at human calcitonin receptor expressed in BHK570 cells assessed as increase in intracellular cAMP concentration incubated for 3 hrs in absence of albumin by CRE luciferase reporter gene assay. It counts as functional, cell-based.
Series [5] can be described thus: Solubility in 100 mM glycylglycine buffer at pH 3.0 incubated for 18 hrs by UPLC analysis. It counts as physicochemical.
The nature of series [6]: Solubility in 100 mM bistrispropane buffer at pH 8.0 incubated for 18 hrs by UPLC analysis. It counts as physicochemical.
A short description of series [7]: Solubility in 100 mM bistrispropane buffer at pH 7.0 incubated for 18 hrs by UPLC analysis. It counts as physicochemical.
Series [8] is described as follows: Solubility in 100 mM bistrispropane buffer at pH 6.0 incubated for 18 hrs by UPLC analysis. The format is physicochemical.
A short description of series [9]: Solubility in 100 mM bistrispropane buffer at pH 7.5 incubated for 18 hrs by UPLC analysis. It counts as physicochemical.
Series [10] in a line: Solubility in 100 mM bistrispropane buffer at pH 6.5 incubated for 18 hrs by UPLC analysis. The format is physicochemical.
Series [11] can be described thus: Solubility in 100 mM glycylglycine buffer at pH 4.0 incubated for 18 hrs by UPLC analysis. The format is physicochemical.
Series [12] is described as follows: Solubility in 100 mM glycylglycine buffer at pH 5.0 incubated for 18 hrs by UPLC analysis. The format is physicochemical.

The structures appear in SMILES notation. Numbered stars: 1 amine (or outer) side, 2 acyl side, 3 side chain; on linkers, the order of the positions; unused ones are H or OH. Peptide text beside a SMILES is read from it. * marks the point of attachment. C20 diacid = O=C(O)CCCCCCCCCCCCCCCCCCC(=O)*; C18 diacid = O=C(O)CCCCCCCCCCCCCCCCC(=O)*; γGlu = O=C(O)[C@H](CCC(=O)[*:2])N[*:1]; Palmitoyl = CCCCCCCCCCCCCCCC(=O)*

By IC50 is commonly meant the concentration at which inhibition is half-maximal. As usually defined, the EC50 is the concentration needed to bring the measured effect to its halfway point. As for `CC(C)C[C@H](NC(=O)[C@H](C)NC(=O)[C@H](C)NC(=O)[C@@H](NC(=O)[C@H](CO)NC(=O)[C@H](CC(C)C)NC(=O)[C@H](CCC(=O)O)NC(=O)[C@H](CO)NC(=O)[C@H](C)NC(=O)CC[C@H](NC(=O)CCCCCCCCCCCCCCCCCCC(=O)O)C(=O)O)[C@@H](C)O)C(=O)NCC(=O)N[C@@H](CCCNC(=N)N)C(=O)N[C@@H](CC(C)C)C(=O)N[C@@H](CO)C(=O)N[C@@H](C)C(=O)N[C@@H](CCC(=O)O)C(=O)N[C@@H](CC(C)C)C(=O)N[C@@H](Cc1cnc[nH]1)C(=O)N[C@@H](CCC(=O)O)C(=O)N[C@@H](CC(C)C)C(=O)N[C@@H](C)C(=O)N[C@H](C(=O)N[C@@H](Cc1ccc(O)cc1)C(=O)N1CCC[C@H]1C(=O)N[C@@H](CCCNC(=N)N)C(=O)N[C@H](C(=O)N[C@@H](CCC(=O)O)C(=O)N[C@H](C(=O)NCC(=O)N[C@@H](CO)C(=O)NCC(=O)N[C@@H](CO)C(=O)N1CCC[C@H]1C(=O)N[C@@H](CCCCN)C(=O)O)[C@@H](C)O)[C@@H](C)O)[C@@H](C)O` ({C20 diacid-γGlu}-ASELSTAALGRLSAELHELATYPRTETGSGSPK-OH), in series [1], the half-maximal inhibitory concentration (IC50) is 21 nM. Moreover, the values for the concentration for a half-maximal effect (EC50) (at Calcitonin receptor [2]; in [3]) were 0.053 nM and 0.239 nM, respectively.

Consider `CC(C)C[C@H](NC(=O)[C@H](C)NC(=O)[C@H](C)NC(=O)[C@@H](NC(=O)[C@H](CO)NC(=O)[C@H](CC(C)C)NC(=O)[C@H](CCC(=O)O)NC(=O)[C@H](CO)NC(=O)[C@H](C)NC(=O)CC[C@H](NC(=O)CCCCCCCCCCCCCCCCCCC(=O)O)C(=O)O)[C@@H](C)O)C(=O)NCC(=O)N[C@@H](CCCNC(=N)N)C(=O)N[C@@H](CC(C)C)C(=O)N[C@@H](CO)C(=O)N[C@@H](C)C(=O)N[C@@H](CCC(=O)O)C(=O)N[C@@H](CC(C)C)C(=O)N[C@@H](Cc1cnc[nH]1)C(=O)N[C@@H](CCC(=O)O)C(=O)N[C@@H](CC(C)C)C(=O)N[C@@H](C)C(=O)N[C@H](C(=O)N[C@@H](Cc1ccc(O)cc1)C(=O)N1CCC[C@H]1C(=O)N[C@@H](CCCNC(=N)N)C(=O)N[C@H](C(=O)N[C@@H](CCC(=O)O)C(=O)N[C@H](C(=O)NCC(=O)N[C@@H](CO)C(=O)NCC(=O)N[C@@H](CO)C(=O)N1CCC[C@H]1C(=O)NCC(=O)O)[C@@H](C)O)[C@@H](C)O)[C@@H](C)O` ({C20 diacid-γGlu}-ASELSTAALGRLSAELHELATYPRTETGSGSPG-OH), for which the IC50 in series [1] was 7.26 nM. Besides, the EC50 at Calcitonin receptor [2] is 0.05 nM; at Calcitonin receptor [4] it was 0.064 nM; in series [3] it was 0.187 nM.

One may read the solubility as the concentration that dissolves in the medium under given conditions. Lower therefore signals little dissolved substance. Regarding `CC(C)C[C@H](NC(=O)CNC(=O)[C@H](CO)NC(=O)[C@H](C)NC(=O)CC[C@H](NC(=O)CCCCCCCCCCCCCCCCCCC(=O)O)C(=O)O)C(=O)N[C@@H](CO)C(=O)N[C@H](C(=O)N[C@@H](C)C(=O)N[C@@H](C)C(=O)N[C@@H](CC(C)C)C(=O)NCC(=O)N[C@@H](CCCNC(=N)N)C(=O)N[C@@H](CC(C)C)C(=O)N[C@@H](CO)C(=O)N[C@H](C(=O)N[C@@H](CCC(=O)O)C(=O)N[C@@H](CC(C)C)C(=O)N[C@@H](Cc1cnc[nH]1)C(=O)N[C@@H](CCC(=O)O)C(=O)N[C@@H](CC(C)C)C(=O)N[C@@H](CCC(=O)O)C(=O)N[C@H](C(=O)N[C@@H](Cc1ccc(O)cc1)C(=O)N1CCC[C@H]1C(=O)N[C@@H](CCCNC(=N)N)C(=O)N[C@H](C(=O)N[C@@H](CCC(=O)O)C(=O)N[C@H](C(=O)NCC(=O)N[C@@H](CO)C(=O)NCC(=O)N[C@H](C(=O)N[C@@H](Cc1ccc(O)cc1)C(N)=O)[C@@H](C)O)[C@@H](C)O)[C@@H](C)O)[C@@H](C)O)[C@@H](C)O)[C@@H](C)O` ({C20 diacid-γGlu}-ASGLSTAALGRLSTELHELETYPRTETGSGTY-NH2), the IC50 in series [1] is 0.431 nM. For the same compound, the figures for the EC50 (on Calcitonin receptor [2]; on Calcitonin receptor [4]; in [3]) were 0.067 nM, 0.018 nM and 0.054 nM, respectively. Besides, the solubility at 18 h in series [5], in [6], in series [7], in [8], in [9] and in series [10] was not below 200 µM each time.

As for `CCCCCCCCCCCCCCCC(=O)N[C@@H](CCC(=O)O)C(=O)N[C@@H](C)C(=O)N[C@@H](CO)C(=O)N[C@@H](CCC(=O)O)C(=O)N[C@@H](CC(C)C)C(=O)N[C@@H](CO)C(=O)N[C@H](C(=O)N[C@@H](C)C(=O)N[C@@H](C)C(=O)N[C@@H](CC(C)C)C(=O)NCC(=O)N[C@@H](CCCNC(=N)N)C(=O)N[C@@H](CC(C)C)C(=O)N[C@@H](CO)C(=O)N[C@@H](C)C(=O)N[C@@H](CCC(=O)O)C(=O)N[C@@H](CC(C)C)C(=O)N[C@@H](Cc1cnc[nH]1)C(=O)N[C@@H](CCC(=O)O)C(=O)N[C@@H](CC(C)C)C(=O)N[C@@H](C)C(=O)N[C@H](C(=O)N[C@@H](CC(C)C)C(=O)N1CCC[C@H]1C(=O)N[C@@H](CCCNC(=N)N)C(=O)N[C@H](C(=O)N[C@@H](CCC(=O)O)C(=O)N[C@H](C(=O)NCC(=O)N1CCC[C@H]1C(=O)N[C@@H](CCC(=O)O)C(=O)N[C@@H](CO)C(=O)N1CCC[C@H]1C(N)=O)[C@@H](C)O)[C@@H](C)O)[C@@H](C)O)[C@@H](C)O` (Palmitoyl-EASELSTAALGRLSAELHELATLPRTETGPESP-NH2), in series [1], the IC50 was 0.435 nM. Also, the solubility at 18 h in series [5], in series [6], in series [7], in series [8], in series [9] and in series [11] was not below 200 µM each time. In addition, the solubility at 18 h in series [10] and in series [12] was not below 200 µM in each case. Besides, the figures for the concentration for a half-maximal effect (EC50) (at Calcitonin receptor [4]; in series [3]) were 0.013 nM and 0.01 nM, respectively.

Turning to `CC[C@H](C)[C@H](NC(=O)[C@H](CCC(=O)O)NC(=O)[C@H](C)NC(=O)[C@H](CO)NC(=O)[C@H](CC(C)C)NC(=O)[C@H](CCCNC(=N)N)NC(=O)CNC(=O)[C@H](CC(C)C)NC(=O)[C@H](C)NC(=O)[C@H](C)NC(=O)[C@@H](NC(=O)[C@H](CO)NC(=O)[C@H](CC(C)C)NC(=O)[C@H](CCC(=O)O)NC(=O)[C@H](CO)NC(=O)[C@H](C)NC(=O)[C@H](CCC(=O)O)NC(=O)CCCCCCCCCCCCCCCCC(=O)O)[C@@H](C)O)C(=O)N[C@@H](Cc1cnc[nH]1)C(=O)N[C@@H](CCC(=O)O)C(=O)N[C@@H](CC(C)C)C(=O)N[C@@H](C)C(=O)N[C@H](C(=O)N[C@@H](CC(C)C)C(=O)N1CCC[C@H]1C(=O)N[C@@H](CCCNC(=N)N)C(=O)N[C@H](C(=O)N[C@@H](CCC(=O)O)C(=O)N[C@H](C(=O)NCC(=O)N1CCC[C@H]1C(=O)N[C@@H](CCC(=O)O)C(=O)N[C@@H](CO)C(=O)N1CCC[C@H]1C(N)=O)[C@@H](C)O)[C@@H](C)O)[C@@H](C)O` ({C18 diacid}-EASELSTAALGRLSAEIHELATLPRTETGPESP-NH2), the IC50 in series [1] is 1.48 nM. Also, the solubility at 18 h in [5], in series [6], in [7], in series [8], in series [9] and in series [11] was not below 200 µM throughout. Also, the solubility at 18 h in [10] and in [12] was not below 200 µM in each case. Also, the EC50 on Calcitonin receptor [4] was 0.005 nM; in series [3] it was 0.007 nM.
